Ends that are not written are not given here. * marks the point of attachment. Myristoyl = CCCCCCCCCCCCCC(=O)*
How the values were obtained:
sebum production = settings: background statement; cited from earlier work
sebaceous glands = test: Sebum production and maturation of sebaceous glands in newborn BalbC mice topically treated with visfatin antagonist siRNAs (Oil Red O, H&E, gland counts); assay type: in vivo, Mus musculus; settings: siRNA free second control solution (PBS, 0.1% DMSO, 1 μg/ml MPDY), day 5 after birth
Protocol: Hematoxylin & Eosin Staining: Paraffin embedded skin biopsy section slides were incubated at 60° C. for 60 minutes and deparaffinized by washing the slides twice with toluene (100%) for 10 minutes and rehydrating the skin biopsy section slides in decreasing concentration of ethanol (100-50%) for 5 minutes each. The slides then were stained with a ready to use solution of hematoxylin for 5 minutes, rinsed with water, stained with eosin (0.5% in double distilled water) for 1.5 minutes and washed twice by rapid immersion in 70% ethanol. Thereafter, the slides were dehydrated by washing once with 95% ethanol for 5 minutes, twice with 100% ethanol for 5 minutes and twice with xylene (100%) for 10 minutes. This was followed by the application of ENTELLAN™ (Merck KGaA, Darmstadt, Germany) and the mounting of coverslips.
Oil Red O Staining: Frozen skin biopsy section slides were fixed in 1% neutral-buffered formalin for 5 minutes, washed in deionized water, and incubated in 60% isopropanol for 5 minutes. Skin biopsy section slides were stained with a fresh, filtered Oil Red O working solution which had been prepared immediately beforehand by making a 2:3 mixture of stock (0.5% Oil Red O in 99% isopropanol) and deionized water. […]

Compound | decrease of sebum production (sebum production) | effect of peptide alone on sebum production and skin (sebaceous glands)
CC1=C(/C=C/C(C)=C/C=C/C(C)=C\C(=O)O)C(C)(C)CCC1 [Isotretinoin] | up to 90% | –
MPDY: cationic, lipophilic, N-myristoylated peptide having the amino acid sequence FARKGALRQ (SEQ ID NO: 27) (Myristoyl-FARKGALRQ) | – | did not inhibit sebum production or otherwise discernibly alter the skin

— patent publication US9393284B2, “Visfatin therapeutic agents for the treatment of acne and other conditions” (ARAVA BIO-TECH LTD., priority 2009, dated 2016)
